Measured values: US6534480B2, “Compositions for increasing energy in vivo” (Bioenergy Inc., priority 1999, dated 2003)

Legend:
[1] = cited from earlier work
[2] = oral, humans; cited from earlier work
[3] = Cycle sprint power output in healthy fit subjects (Ribose Athlete Study); type: in vivo, human; conditions: for Mean Power Per Kilogram, Average / Peak Power Per Kilogram, Average / Total Power Per Kilogram, Average: average of sessions 1-6
Method: (§1) Four healthy, fit subjects in the age range 24 to 26 years of age were tested. The group was selected to be homogeneous regarding fitness level, gender and mean age with no known metabolic, neuronal, endocrine or cardiopulmonary disorders. All were capable of or had experience with cycling. The study protocol included four phases: (1) an initial baseline phase consisting of no exercise session; (2) a loading phase including three days of administration of either D-ribose or placebo (glucose) three times per day; (3) a training phase of three days employing exercise sessions characterized by serial (N=6) bouts of short (10 second) high-intensity cycle sprints at 7% body mass resistance with 50 second rest periods between sprints twice per day (morning and afternoon), and (4) a recovery phase for a period of 48 hours after the final training session. FIG. 1 is a diagram of a single cycle sprint bout. Two subjects were randomly selected for inclusion into the placebo or ribose group. Ribose or glucose was administered orally in a 250 ml iso-osmotic solution containing 10.0 grams of either ribose or placebo three times per day for three days preceding training (loading phase) and for three days during training (training phase). One-half liter isotonic electrolyte solution was given immediately post exercise and again 30 minutes later to avoid dehydration.

ATP = ATP in vastis lateralis muscle biopsies (Ribose Athlete Study); type: in vivo, human; conditions: for ATP Recovery % of Pre: 48 hours recovery vs initial level
Method: as §1, with “bout. Muscle biopsies (MB) were performed on the […] lateralis muscle using both legs in order to evenly distribute and minimize sampling and possible muscle soreness per leg due to the biopsy itself. The first MB was collected at rest at the beginning of the study to establish a baseline and immediately after the first training-session of day 0 or the first phase. During the loading phase, no MB was taken. Muscle Biposies were taken following the final training session and after 48 hours of recovery.” for “bout.”, “dehydration. The concentration of the following analytes was determined in the MB samples: ATP, ADP, AMP, IMP (inosine monophosphate), TAN (total adenine nucleotides), creatine phosphate and creatine.” for “dehydration.”

[4] = Treadmill test (Bruce protocol), single patient with stable coronary artery disease; type: in vivo, human
Method: The patient was tested for treadmill performance. After two baseline treadmill tests, following the Bruce protocol, they received orally administered D-ribose (40 gm in three divided doses daily) for three days and completed a third treadmill test. […] In each test, this patient concluded the test due to shortness of breath, but experienced no angina.
It is generally accepted that the product of heart rate and systemic pressure is a measure of myocardial function and energy level, with lower numbers indicating better myocardial function. As a result of the administration of ribose, average tolerated time on the treadmill increased.

[5] = ribose group mean, sprint session 1
[6] = ribose group mean, sprint session 2
[7] = ribose group mean, sprint session 3
[8] = ribose group mean, sprint session 4
[9] = ribose group mean, sprint session 5
[10] = ribose group mean, sprint session 6

O=C[C@H](O)[C@H](O)[C@H](O)CO [Ribose, D-ribose]
symptoms of MAD-deficient patients ([1]; MAD-deficient patients): relieved | effect in normal volunteers ([1]; normal volunteers): no beneficial effect | treatment of cardiac insufficiency and hypovolemic shock [2]: effective | Mean Power Per Kilogram, Average ([3]; ribose group mean): 8.2 Watts | Peak Power Per Kilogram, Average ([3]; ribose group mean): 9.6 Watts | Total Power Per Kilogram, Average ([3]; ribose group mean): 81.6 | Peak Power Per Kilogram [3, 5]: 8.9 Watts | Total Power Per Kilogram [3, 5]: 79.3 | Mean Power Per Kilogram ([3]; ribose group mean, sprint session 1, 10.0 grams oral three times per day): 7.8 Watts | Mean Power Per Kilogram [3, 6]: 8.4 Watts | Peak Power Per Kilogram [3, 6]: 9.7 Watts | Total Power Per Kilogram [3, 6]: 83.3 | Mean Power Per Kilogram [3, 7]: 8.5 Watts | Peak Power Per Kilogram [3, 7]: 10.0 Watts | Total Power Per Kilogram [3, 7]: 84.2 | Mean Power Per Kilogram [3, 8]: 8.3 Watts | Peak Power Per Kilogram [3, 8]: 9.9 Watts | Total Power Per Kilogram [3, 8]: 82.8 | Mean Power Per Kilogram [3, 9]: 8.2 Watts | Peak Power Per Kilogram [3, 9]: 9.8 Watts | Total Power Per Kilogram [3, 9]: 81.8 | Mean Power Per Kilogram [3, 10]: 7.8 Watts | Peak Power Per Kilogram [3, 10]: 9.3 Watts | Total Power Per Kilogram [3, 10]: 77.9 | Mean Power Per Kilogram, average relative to placebo (100.0%) ([3]; ribose group vs placebo group): 109.0% | Peak Power Per Kilogram, average relative to placebo (100.0%) ([3]; ribose group vs placebo group): 109.9% | Total Power Per Kilogram, average relative to placebo (100.0%) ([3]; ribose group vs placebo group): 109.5% | increase in performance ([3]; ribose vs placebo, Tables II to IV): 9% | Mean Power Per Kilogram, Average ([3]; subject 2R): 7.5 Watts | Peak Power Per Kilogram, Average ([3]; subject 2R): 8.8 Watts | Total Power Per Kilogram, Average ([3]; subject 2R): 75.1 | Mean Power Per Kilogram ([3]; subject 2R, sprint session 1): 6.9 Watts | Peak Power Per Kilogram ([3]; subject 2R, sprint session 1): 7.9 Watts | Total Power Per Kilogram ([3]; subject 2R, sprint session 1): 71.9 | Mean Power Per Kilogram ([3]; subject 2R, sprint session 2): 7.5 Watts | Peak Power Per Kilogram ([3]; subject 2R, sprint session 2): 8.8 Watts | Total Power Per Kilogram ([3]; subject 2R, sprint session 2): 74.7 | Mean Power Per Kilogram ([3]; subject 2R, sprint session 3): 7.8 Watts | Peak Power Per Kilogram ([3]; subject 2R, sprint session 3): 9.2 Watts | Total Power Per Kilogram ([3]; subject 2R, sprint session 3): 77.1 | Mean Power Per Kilogram ([3]; subject 2R, sprint session 4): 7.6 Watts | Peak Power Per Kilogram ([3]; subject 2R, sprint session 4): 9.0 Watts | Total Power Per Kilogram ([3]; subject 2R, sprint session 4): 75.6 | Mean Power Per Kilogram ([3]; subject 2R, sprint session 5): 7.9 Watts | Peak Power Per Kilogram ([3]; subject 2R, sprint session 5): 9.4 Watts | Total Power Per Kilogram ([3]; subject 2R, sprint session 5): 78.1 | Mean Power Per Kilogram ([3]; subject 2R, sprint session 6): 7.4 Watts | Peak Power Per Kilogram ([3]; subject 2R, sprint session 6): 8.7 Watts | Total Power Per Kilogram ([3]; subject 2R, sprint session 6): 73.4 | Mean Power Per Kilogram, Average ([3]; subject 3R): 8.8 Watts | Peak Power Per Kilogram, Average ([3]; subject 3R): 10.3 Watts | Total Power Per Kilogram, Average ([3]; subject 3R): 88.0 | Mean Power Per Kilogram ([3]; subject 3R, sprint session 1): 8.7 Watts | Peak Power Per Kilogram ([3]; subject 3R, sprint session 1): 9.8 Watts | Total Power Per Kilogram ([3]; subject 3R, sprint session 1): 86.8 | Mean Power Per Kilogram ([3]; subject 3R, sprint session 2): 9.2 Watts | Peak Power Per Kilogram ([3]; subject 3R, sprint session 2): 10.6 Watts | Total Power Per Kilogram ([3]; subject 3R, sprint session 2): 91.9 | Mean Power Per Kilogram ([3]; subject 3R, sprint session 3): 9.1 Watts | Peak Power Per Kilogram ([3]; subject 3R, sprint session 3): 10.7 Watts | Total Power Per Kilogram ([3]; subject 3R, sprint session 3): 91.3 | Mean Power Per Kilogram ([3]; subject 3R, sprint session 4): 9.0 Watts | Peak Power Per Kilogram ([3]; subject 3R, sprint session 4): 10.7 Watts | Total Power Per Kilogram ([3]; subject 3R, sprint session 4): 90.0 | Mean Power Per Kilogram ([3]; subject 3R, sprint session 5): 8.5 Watts | Peak Power Per Kilogram ([3]; subject 3R, sprint session 5): 10.1 Watts | Total Power Per Kilogram ([3]; subject 3R, sprint session 5): 85.4 | Mean Power Per Kilogram ([3]; subject 3R, sprint session 6): 8.2 Watts | Peak Power Per Kilogram ([3]; subject 3R, sprint session 6): 9.9 Watts | Total Power Per Kilogram ([3]; subject 3R, sprint session 6): 82.5 | ATP Recovery % of Pre (ATP): 82% | ATP Recovery % of Pre (ATP; listed as ribose): 82% | ATP Change Post-Rec (ATP; in vivo): 6.90 mmol/kg dw | ATP Change Pre-Post (ATP; in vivo): −11.43 mmol/kg dw | Mean ATP Values, Recovery (ATP; muscle biopsy after 48 hours of recovery): 20.80 mmol/kg dw | Mean ATP Values, Post (ATP; muscle biopsy following the final training session): 13.90 mmol/kg dw | Mean ATP Values, Pre (ATP; muscle biopsy, after three days ribose loading, before training): 25.33 mmol/kg dw | Rate-pressure product, % change ([4]; 0 (rest), Test vs average of two baselines): −9.55% | Rate-pressure product (beats per minute times systolic blood pressure mm Hg), Test ([4]; 0 (rest), oral D-ribose 40 gm in three divided doses daily for three days): 9,177 | Rate-pressure product (beats per minute times systolic blood pressure mm Hg), Test ([4]; 3 minutes on treadmill, after D-ribose): 15,272 | Rate-pressure product, % change ([4]; 3 minutes, Test vs average of two baselines): −1.60% | Rate-pressure product (beats per minute times systolic blood pressure mm Hg), Test ([4]; 6 minutes on treadmill, after D-ribose): 20,592 | Rate-pressure product, % change ([4]; 6 minutes, Test vs average of two baselines): −15.68% | Rate-pressure product (beats per minute times systolic blood pressure mm Hg), Test ([4]; 9 minutes on treadmill, after D-ribose): 25,356 | Rate-pressure product, % change ([4]; 9 minutes, Test vs average of two baselines): −9.87% | Tolerated time, % change ([4]; Test vs average of two baselines): 5.06% | patient's subjective report ([4]; during ribose administration): feeling more energetic | Tolerated time, Test ([4]; treadmill, Bruce protocol, after D-ribose): 540.00 s
